A word on the IC50: it is the concentration that inhibits the measured activity by half.

The values that follow come from patent US5795977A, “Water soluble adenosine kinase inhibitors” (Metabasis Therapeutics, Inc., priority 1996, dated 1998).

Structures can show the parent of a compound that is named as a salt.

Test [1] deals with partially purified pig heart adenosine kinase or recombinant human adenosine kinase. Put plainly: AK inhibition. It is filed as biochemical. Conditions: 0.5 μM [U-14C] adenosine, pH 7.0, 37° C., 20 minutes. Here is the method: Adenosine kinase activity was measured essentially as described by Yamada et al. Biochim. Biophys. Acta 660, 36-43 (1988) with a few minor modifications. Assay mixtures contained 50 mM TRIS-maleate buffer, pH 7.0, 0.1% BSA, 1 mM ATP 1 mM MgCl2, 0.5 μM [U-^14 C] adenosine (400-600 mCi/mmol) and varying duplicate concentrations of inhibitor. […] The amount of ^14 C-AMP was quantified by scintillation counting.

In a further test the test system is Rats (carrageenan paw). Description: Anti-inflammatory activity, carrageenan paw swelling. It counts as in vivo. Conditions: rat, 10 mg/kg, swelling after 3 hours; for Carrageenan Paw (% inhibition) po: oral gavage. Here is the method: Carrageenan (Type λ) was suspended in sterile PBS at 1% (w/v), autoclaved for 30 minutes, and stored at room temperature. Rats were pretreated with vehicle or AK inhibitor (10 mg/kg) by oral gavage or i.p. administration and the volume of the left hind paw was measured using a water displacement plethysmometer (Stoelting Co., Wood Dale, Ill.). One hour after oral treatment or 30 minutes after i.p. treatment, the rats were briefly anesthetized, and 0.1 ml of the carrageenan solution was injected subcutaneously into the planar surface of the left hind paw. The ensuing paw swelling was measured by plethysmometry after 3 hours. The paw volume in millileters was […]. Data are presented in Table 2 as the percent inhibition of paw swelling in AK inhibitor treated animals, compared to vehicle treated control animals.
In general terms: Carrageenan injected into the paw causes an acute inflammation.

On to `C[C@H]1O[C@@H](n2cc(-c3ccccc3)c3c(Nc4ccc(CCO)cc4)ncnc32)[C@H](O)[C@@H]1O` [Compound 2, 4-N-(4-(2-Hydroxyethyl)phenyl)amino-5-phenyl-7-(5-deoxy-β-D-ribofuranosyl)pyrrolo[2,3-d]pyrimidine], for which, in test [1], the IC50 is 1 nM. In addition, in the test on Rats (carrageenan paw), the “Carrageenan Paw (% inhibition) ip” value turned out to be 13.2% and the “Carrageenan Paw (% inhibition) po” value is on record as 1.9%.

Turning to `C[C@H]1O[C@@H](n2cc(-c3ccccc3)c3c(Nc4ccc(CCN5CCNCC5)cc4)ncnc32)[C@H](O)[C@@H]1O` [Compound 4, 4-N-[4-(2-(1-piperazino)ethyl)phenyl]amino-5-phenyl-7-(5-deoxy-β-D-ribofuranosyl)pyrrolo[2,3-d]pyrimidine], in the test with Rats (carrageenan paw), the “Carrageenan Paw (% inhibition) po” value amounted to 2.5%.

`C[C@H]1O[C@@H](n2cc(-c3ccccc3)c3c(Nc4ccc(CCN(C)C)cc4)ncnc32)[C@H](O)[C@@H]1O` [Compound 7, 4-N-[4-(2-N,N-dimethylaminoethyl)phenyl]amino-5-phenyl-7-(5-deoxy-β-D-ribofuranosyl)pyrrolo[2,3-d]pyrimidine]: the IC50 in test [1] turned out to be 1 nM. Also, in the test with Rats (carrageenan paw), the “Carrageenan Paw (% inhibition) ip” value is 19.0% and the “Carrageenan Paw (% inhibition) po” value came out at 7.7%.

On to `NCCc1ccc(Nc2ncnc3c2c(-c2ccccc2)cn3[C@@H]2O[C@@H](CO)[C@@H](O)[C@H]2O)cc1` [Compound 16, 4-N-(4-(2-aminoethyl)phenyl)amino-5-phenyl-7-α-L-lyxofuranosylpyrrolo[2,3-d]pyrimidine], for which the IC50 in test [1] was found to be 1 nM. In the test on Rats (carrageenan paw), the “Carrageenan Paw (% inhibition) ip” value stood at 31.6% and the “Carrageenan Paw (% inhibition) po” value worked out at 12.4%.

As to `CC(=O)Nc1ccc(Nc2ncnc3c2c(I)cn3[C@@H]2O[C@H](C)[C@H]3OC(C)(C)O[C@H]32)cc1` [Compound 29, 4-N-[4-(N-acetylamino)phenyl]amino-5-iodo-7-(1-β-D-5-deoxy-2,3-O-isopropylideneribose)pyrrolo[2,3-d]pyrimidine], the half-maximal inhibitory concentration (IC50) in test [1] was 0.5 nM. Further, in the test on Rats (carrageenan paw), the “Carrageenan Paw (% inhibition) ip” value is 26.1% and the “Carrageenan Paw (% inhibition) po” value was determined as 14.9%.

On to `C[C@H]1O[C@@H](n2cc(-c3ccccc3)c3c(Nc4ccc(C(N)=NO)cc4)ncnc32)[C@H](O)[C@@H]1O` [Compound 37, 4-N-(4-amidoximephenyl)amino-5-phenyl-7-(5-deoxy-1-β-D-ribofuranosylpyrrolo[2,3-d]pyrimidine hydrochloride], for which the IC50 in test [1] was 5 nM. In the test on Rats (carrageenan paw), the “Carrageenan Paw (% inhibition) ip” value turned out to be 17.9% and the “Carrageenan Paw (% inhibition) po” value is listed as 23.3%.

As to `C[C@H]1O[C@@H](n2cc(-c3ccccc3)c3c(Nc4ccc(C(=N)N)cc4)ncnc32)[C@H](O)[C@@H]1O` [Compound 39, 4-N -(4-amidinophenyl)amino-5-phenyl-7-(5-deoxy-1-β-ribofuranosyl)pyrrolo[2,3-d]pyrimidine], the IC50 in test [1] turned out to be 1 nM.

In the case of `CC(=O)NS(=O)(=O)c1ccc(Nc2ncnc3c2c(-c2ccccc2)cn3[C@@H]2O[C@H](C)[C@@H](O)[C@H]2O)cc1` [Compound 40, 4-N-[4-(N-acetylaminosulfonyl)phenyl]amino-5-phenyl-7-(5-deoxy-1-β-D-ribofuranosyl)pyrrolo[2,3-d]pyrimidine], the IC50 in test [1] was 3000 nM.

Consider `C[C@H]1O[C@@H](n2cc(I)c3c(NCc4ccccn4)ncnc32)[C@H](O)[C@@H]1O` [Compound 41, 4-N-(2-pyridylmethylamino)-5-iodo-7-(5-deoxy-1-β-D-ribofuranosyl)pyrrolo[2,3-d]pyrimidine], for which the IC50 in test [1] is 70 nM.

`C[C@H]1O[C@@H](n2cc(I)c3c(NCc4cccnc4)ncnc32)[C@H](O)[C@@H]1O` [Compound 44, 4-N-(3-pyridylmethylamino)-5-iodo-7-(5-deoxy-1-β-D-ribofuranosyl)pyrrolo[2,3-d]pyrimidine]: the IC50 in test [1] is 120 nM.

As for `C[C@H]1O[C@@H](n2cc(I)c3c(NCc4nc5ccccc5[nH]4)ncnc32)[C@H](O)[C@@H]1O` [Compound 45, 4-N-(2-benzimidazolylmethyl)amino-5-iodo-7-(5-deoxy-1-β-D-ribofuranosyl) pyrrolo[(2,3-d)]pyrimidine], the IC50 in test [1] is 500 nM.

Turning to `OC[C@@H]1O[C@@H](n2cc(I)c3c(NCc4ccccn4)ncnc32)[C@H](O)[C@@H]1O` [Compound 46, 4-N-(2-pyridylmethyl)amino-5-iodo-7-(a-L-lyxofuranosyl)pyrrolo(2,3-d)pyrimidine], the half-maximal inhibitory concentration (IC50) in test [1] was 220 nM.

As for `C[C@H]1O[C@@H](n2cc(-c3cccnc3)c3c(Nc4ccccc4)ncnc32)[C@H](O)[C@@H]1O` [Compound 47, 4-N-Phenylamino-5-(3-pyridino)-7-(5-deoxy-1-β-D-ribofuranosyl) pyrrolo[2,3-d]pyrimidine], the IC50 in test [1] is 55 nM. In addition, in the test with Rats (carrageenan paw), the “Carrageenan Paw (% inhibition) ip” value is 0.0% and the “Carrageenan Paw (% inhibition) po” value is listed as 9.8%.

As for `C[C@H]1O[C@@H](n2cc(-c3cccnc3)c3c(NCc4ccccn4)ncnc32)[C@H](O)[C@@H]1O` [Compound 48, 4-N-(2-pyridylmethyl)amino-5-(3-pyridino)-7-(5-deoxy-1-β-D-ribofuranosyl)pyrrolo[2,3-d]pyrimidine], in test [1], the IC50 came out at 300 nM.

Regarding `C[C@H]1O[C@@H](n2cc(-c3ccccc3)c3c(Nc4ccc(CC(=O)O)cc4)ncnc32)[C@H](O)[C@@H]1O` [Compound 186, 4-N-(4-Carboxymethylphenyl)amino-5-phenyl-7-(5-deoxy-1-β-D-ribofuranosyl)pyrrolo[2,3-d]pyrimidine], in test [1], the IC50 came out at 80 nM.

Turning to `C[C@H]1O[C@@H](n2cc(-c3ccccc3)c3c(Nc4ccc(CC(=O)N5CCNCC5)cc4)ncnc32)[C@H](O)[C@@H]1O` [Compound 189], the IC50 in test [1] amounted to 1 nM. In the test on Rats (carrageenan paw), the “Carrageenan Paw (% inhibition) ip” value is recorded as 30.1% and the “Carrageenan Paw (% inhibition) po” value came to 12.1%.

`C[C@H]1O[C@@H](n2cc(-c3ccccc3)c3c(Nc4ccc(OCC(=O)N5CCNCC5)cc4)ncnc32)[C@H](O)[C@@H]1O` [Compound 196, 4-N-[4-(4-piperazinocarbonylmethyloxy)phenyl]amino-5-phenyl-7-(5-deoxy-1-β-D-ribofuranosyl)pyrrolo(2,3-d)pyrimidine]: the IC50 in test [1] was found to be 0.35 nM. In addition, in the test on Rats (carrageenan paw), the “Carrageenan Paw (% inhibition) ip” value is on record as 11.8% and the “Carrageenan Paw (% inhibition) po” value came to 0.0%.

For `C[C@H]1O[C@@H](n2cc(-c3ccc(CN4CCNCC4)cc3)c3c(Nc4ccc(F)cc4)ncnc32)[C@H](O)[C@@H]1O` [Compound 197, 4-N-(4-fluorophenyl)amino-5-[4-(N-piperazinomethyl)phenyl]-7-(5-deoxy-β-D-ribofuranosyl)pyrrolo[2,3-d]pyrimidine], the IC50 in test [1] is 9 nM.

Turning to `C[C@H]1O[C@@H](n2cc(-c3ccc(CN(C)C)cc3)c3c(Nc4ccc(F)cc4)ncnc32)[C@H](O)[C@@H]1O` [Compound 198, 4-N-(4-fluorophenyl)amino-5-[4-(dimethylaminomethyl)phenyl]-7-(5-deoxy-β-D-ribofuranosyl)pyrrolo[2,3-d]pyrimidine], in test [1], the concentration for half-maximal inhibition (IC50) turned out to be 120 nM.

In the case of `C[C@H]1O[C@@H](n2cc(-c3ccc(C(=O)N4CCNCC4)cc3)c3c(Nc4ccc(F)cc4)ncnc32)[C@H](O)[C@@H]1O` [Compound 199, 4-N-(4-fluorophenyl)amino-5-[4-(N-piperazinocarbonyl)phenyl]-7-(5-deoxy-1-β-D-ribofuranosyl)pyrrolo(2,3-d]pyrimidine hydrochloride salt], the IC50 in test [1] was found to be 550 nM.

Consider `CCN(CC)CCNC(=O)c1ccc(-c2cn([C@@H]3O[C@H](C)[C@@H](O)[C@H]3O)c3ncnc(Nc4ccc(F)cc4)c23)cc1` [Compound 200, 4-N-(4-fluorophenyl)amino-5-[4-(2-N,N-diethylaminoethyleneaminocarbonyl)phenyl]-7-(5-deoxy-1-β-D-ribofuranosyl)pyrrolo[2,3-d]pyrimidine hydrochloride], for which the half-maximal inhibitory concentration (IC50) in test [1] came out at 200 nM.

Consider `C[C@H]1O[C@@H](n2cc(-c3ccc(/C=C/C(=O)O)cc3)c3c(Nc4ccc(F)cc4)ncnc32)[C@H](O)[C@@H]1O` [Compound 202, 4-N-(4-fluorophenyl)amino-5-[4-(2-carboxy-E-ethenyl)phenyl]-7-(5-deoxy-1-β-D-ribofuranosyl)pyrrolo[2,3-d]pyrimidine], for which, in test [1], the IC50 was found to be 20 nM. In the test with Rats (carrageenan paw), the “Carrageenan Paw (% inhibition) ip” value amounted to 3.4% and the “Carrageenan Paw (% inhibition) po” value is given as 3.9%.

As for `C[C@H]1O[C@@H](n2cc(-c3ccc(CCC(=O)O)cc3)c3c(Nc4ccc(F)cc4)ncnc32)[C@H](O)[C@@H]1O` [Compound 204, 4-N-(4-fluorophenyl)amino-5-[4-(2-carboxyethyl)phenyl]-7-(5-deoxy-1-β-D-ribofuranosyl)pyrrolo[2,3-d]pyrimidine], in test [1], the IC50 came to 45 nM.

For `CCN(CC)CCNC(=O)c1ccc(Nc2ncnc3c2c(-c2ccccc2)cn3[C@@H]2O[C@H](C)[C@@H](O)[C@H]2O)cc1` [Compound 211], in test [1], the IC50 worked out at 0.5 nM.

As for `C[C@H]1O[C@@H](n2cc(-c3ccccc3)c3c(Nc4ccc(NC(=N)N)cc4)ncnc32)[C@H](O)[C@@H]1O` [Compound 269, 4-N-(4-Guanidinophenyl)amino-5-phenyl-7-(5-deoxy-1-β-D-ribofuranosyl)pyrrolo[2,3-d]pyrimidine], the IC50 in test [1] was found to be 6 nM.
